Source: publication PMC2011122 (British Journal of Cancer, 1982)
Read-outs that look alike come from different tables or passages of the source.

What was measured:
[1] = Polymorphic acetylation in humans; assay type: in vivo; details: conclusion from urinary excretion in 10 phenotyped volunteers
bovine adrenal cells = tested on: bovine adrenal cells; set-up: method as in Coombes et al., 1980; details: bovine adrenal cells in culture, ref Coombes et al., 1980, cited from earlier work; for Glucocorticoid production, % of the resting levels: 10 ug/ml
[2] = set-up: method as in Coombes et al. (1980); details: after AG, ref Coombes et al. (1980), cited from earlier work
[3] = cited from earlier work
mammary carcinoma = tested on: mammary carcinoma; set-up: method as in Smith et al., 1978; details: postmenopausal women; ref Smith et al., 1978; cited from earlier work
[4] = 6 h urine after sulphadimidine
[5] = 24 h urinary excretion of AG and metabolites in volunteers given oral AG; details: oral AG 250 mg, 24 h urine, excreted as the named substance; for Percentage of the administered dose excreted in the urine during 24 h, mean, rapid (fast) acetylators: rapid acetylators of sulphadimidine (5 volunteers); for Percentage of the administered dose excreted in the urine during 24 h, mean, slow acetylators: slow acetylators of sulphadimidine (5 volunteers)
[6] = set-up: method as in Testa & Jenner, 1976; details: ref Testa & Jenner, 1976; cited from earlier work
steroidogenesis = details: no reference given; cited from earlier work
[7] = set-up: method as in Hoffman & Tagmann, 1954; details: ref Hoffman & Tagmann, 1954; cited from earlier work
[8] = set-up: method as in Douglas & Nicholls, 1972; details: humans, urine; ref Douglas & Nicholls, 1972; cited from earlier work

**Q.** Which “Acetylation polymorphism in humans” value [1] does the source give for `CCC1(c2ccc(N)cc2)CCC(=O)NC1=O` (stereo not shown) [AG, aminoglutethimide] here?
**A.** polymorphically acetylated

**Q.** What about the “Glucocorticoid production, % of the resting levels” value (bovine adrenal cells) of the same compound?
**A.** 833%

**Q.** What about the “Plasma level at 0.5 h, mean, slow acetylators” value ([2]; 4 slow acetylators) of the same compound?
**A.** 1140 ng/mL

**Q.** What about the “Plasma level at 0.5 h, mean, rapid acetylators” value ([2]; 5 rapid acetylators) of the same compound?
**A.** 960 ng/mL

**Q.** And the “Plasma level at 2 h, mean, rapid acetylators” value ([2]; 5 rapid acetylators)?
**A.** 0 to 60000 ng/mL

**Q.** What about the “Side effects in patients” value ([3]; patients, ref Smith et al., 1978) of the same compound?
**A.** skin rash and lethargy

**Q.** And the “Efficacy in the treatment of mammary carcinoma” value (mammary carcinoma)?
**A.** effective agent

**Q.** With `CC(=O)Nc1ccc(S(=O)(=O)Nc2nc(C)cc(C)n2)cc1` [N-acetylsulphadimidine] as the compound, how does the “Percentage of the excreted dose as N-acetylsulphadimidine, rapid acetylators” value ([4]; rapid acetylators) read?
**A.** 89-96%

**Q.** And the “Percentage of the excreted dose as N-acetylsulphadimidine, slow acetylators” value ([4]; slow acetylators)?
**A.** 62-68%

**Q.** Which “Percentage of the administered dose excreted in the urine during 24 h, mean, rapid (fast) acetylators” value [5] does the source give for `CCC1(c2ccc(NC=O)cc2)CCC(=O)NC1=O` (stereo not shown) [N-formylAG, N-Formylaminoglutethimide] here?
**A.** 0.465%

**Q.** What about the “Percentage of the administered dose excreted in the urine during 24 h, mean, slow acetylators” value [5] of the same compound?
**A.** 0.475%

**Q.** Which results are given for `CCC1(c2ccc([N+](=O)[O-])cc2)CCC(=O)NC1=O` (stereo not shown) [nitroG, Nitroglutethimide]?
**A.** Percentage of the administered dose excreted in the urine during 24 h, mean, rapid (fast) acetylators [5]: 0.047%; Percentage of the administered dose excreted in the urine during 24 h, mean, slow acetylators [5]: 0.10%

**Q.** With `Nc1ccc(S(=O)(=O)c2ccc(N)cc2)cc1` [diaminodiphenylsulphone] as the compound, how does the “Acetylation polymorphism in humans” value [6] read?
**A.** polymor- phically acetylated

**Q.** Which Adverse side-effect induced ([3]; preponderantly in slow acetylators, ref Perry et al., 1970) does the source give for `NNc1nncc2ccccc12` [hydralazine] here?
**A.** lupus erythematosus

**Q.** Which “Inhibitory effect on steroidogenesis” value (steroidogenesis) does the source give for `CCC1(c2ccccc2)CCC(=O)NC1=O` (stereo not shown) [glutethimide] here?
**A.** little inhibitory effect

**Q.** What about the Hypnotic activity [7] of the same compound?
**A.** powerful hypnotic

**Q.** For `Cc1cc(C)nc(NS(=O)(=O)c2ccc(N)cc2)n1` [sulphamethazine], which “Acetylation polymorphism in humans” value [6] is on record?
**A.** polymor- phically acetylated

**Q.** For `NNC(=O)c1ccncc1` [isoniazid], which “Acetylation polymorphism in humans” value [6] is on record?
**A.** polymor- phically acetylated

**Q.** Which results are given for `CCC1(c2ccc(NC(C)=O)cc2)CCC(=O)NC1=O` (stereo not shown) [N-acetylAG, N-Acetylaminoglutethimide]?
**A.** Glucocorticoid production, % of the resting levels (bovine adrenal cells): 58%; Inhibition of steroidogenesis (ability to reduce corticosteroid output) (bovine adrenal cells; compared with AG): poor inhibitor; Plasma level at 8 h, mean, slow acetylators ([2]; 4 slow acetylators): 0 to 37000 ng/mL; Percentage of the administered dose of AG accounted for as urinary metabolite [8]: 4-25%; Percentage of the administered dose excreted in the urine during 24 h, mean, rapid (fast) acetylators [5]: 8.8%; Percentage of the administered dose excreted in the urine during 24 h, mean, slow acetylators [5]: 3.9%
